The record followed here is patent US20160015064A1, “COMPOUNDS, COMPOSITIONS, AND METHODS FOR MODULATING SWEET TASTE” (CHROMOCELL CORPORATION, priority 2013, published 2016).

Counter-ions that a name gives are not always drawn.

The test system of one assay is perception of the sweet taste of an aqueous solution of sweetener. The experiment in a line: Ranking sip and spit test of sweetness perception (R index). Format: in vivo, humans. Particulars: 5% sucrose test sample; compound 2.5 ppm; vs negative control. The procedure:
The effect of the test compounds on the perception of the sweet taste of an aqueous solution of sweetener in humans was evaluated using a ranking “sip and spit” method.
(§1) The aqueous sweetener solutions were prepared by adding, fructose, sucrose or glucose (by weight), to water to achieve the desired concentration.
Compounds were first prepared as a 500-fold concentrated stock solution in 100% ethanol. These concentrated stocks were then added to the aqueous sweetener solutions to result in a final ethanol concentration of 0.2%. The control (positive and negative) samples were also normalized to 0.2% ethanol.
In the ranking test used for compound evaluation, taste panelists (n=15), rank samples in increasing order of sweetness. One set, comprising of 6 samples, was presented to each panelists at a given time and are asked to rank them in order of increasing sweetness.
Panelists were instructed not to eat or drink (except water) for at least 1 h before the test. During the test, panelists were instructed to sip each sample, swirl it around their mouth and then expectorate. After tasting each set, panelists were instructed to rank the 6 samples within the set from least sweet to most sweet. Where rank 1—is lowest in sweetness and rank 6—is highest in sweetness. Panelists cleansed their palates by rinsing with water, eating a cracker and waiting for an interval of 10 minutes. All samples were tasted at ambient temperatures. Each sample was tasted twice.
R index analysis was utilized to determine the degree of difference between a test and control sample. It indicates the level of discrimination between two samples. […] A positive control sample was used to assess the ability of the panelists to accurately discriminate sweetness perception differences from the negative control.
`O=C1CC(c2cccc(O)c2)Oc2cccc(O)c21` (stereo not drawn) [Compound 12, 5-hydroxy-2-(3-hydroxyphenyl)chroman-4-one]: the “R Index Score” value was 62.

Still in this assay, the particulars now being: 5% sucrose test sample; compound 10 ppm; vs negative control; significant at R index ≧60.
Consider `COC(=O)c1cccc(C2CC(=O)c3c(O)cc(O)cc3O2)c1` (stereo not drawn) [Compound 13, methyl 3-(5,7-dihydroxy-4-oxochroman-2-yl)benzoate], for which the “R Index Score” value came to 61.

With `COc1ccc(C2CC(=O)c3c(O)cc(C)cc3O2)cc1O` (stereo not drawn) [Compound 6, 5-hydroxy-2-(3-hydroxy-4-methoxyphenyl)-7-methylchroman-4-one], the “R Index Score” value is 82. On the same count and under the same terms, the result for `O=C1CC(c2cccc(O)c2)Oc2cc(O)cc(O)c21` (stereo not drawn) [Compound 10, 5,7-dihydroxy-2-(3-hydroxyphenyl)chroman-4-one] reads 65. On to `O=C1CC(c2ccc(O)c(O)c2)Oc2cccc(O)c21` (stereo not drawn) [Compound 8, 2-(3,4-dihydroxyphenyl)-5-hydroxychroman-4-one], for which the “R Index Score” value is on record as 69. Same read-out and setting: to `O=C1CC(c2ccc(O)cc2)Oc2cccc(O)c21` (stereo not drawn) [Compound 7, 5-hydroxy-2-(4-hydroxyphenyl)chroman-4-one] belongs 71.

For the next assay the test system is unchanged. The experiment in a line: Two-alternative forced choice sip and spit method (2AFC). Type of assay: in vivo, humans. To be noted: test sample 4% fructose; compound 20 ppm with positive 2AFC. The procedure:
The effect of the test compounds on the perception of the sweet taste of an aqueous solution of sweetener in humans was evaluated using a two-alternative forced choice “sip and spit” method (2AFC).
as §1
Compounds were first prepared as a 500-fold concentrated stock solution in 100% ethanol. These concentrated stocks were then added to the aqueous sweetener solutions to result in a final ethanol concentration of 0.2%. The control (positive and negative) samples were also normalized to 0.2% ethanol. This level of ethanol was not seen to contribute any perceived sweetness.
The 2AFC test used for compound evaluation was a blind and randomized test where taste panelists (n=15) evaluate a pair of sweetener solutions at a time—one sample contains aqueous sweetener solution plus compound (i.e. test) while the other contains aqueous sweetener solution at higher concentration without compound (i.e. positive control). Each test sample was compared against a positive control. For example, if the test sample contained 1× sweetener concentration with compound (e.g. 5% sucrose with compound), the positive control sample contained a 1.1× sweetener concentration (e.g. 5.5% sucrose without compound).
Panelists were instructed not to eat or drink (except water) for at least 1 h before the test. During the test, panelists were instructed to sip each sample, swirl it around their mouth and then expectorate. After tasting each sample in the pair, panelists were instructed to record the sample that is “sweeter” in taste. Panelists cleansed their palates by rinsing with water, eating a cracker and waiting for an interval of about 5 minutes. Each pair was tasted twice. All samples were tasted at ambient temperatures. Data were analyzed using binomial probabilities.
Approximate levels of sweetness enhancement in column 5 of Table 2 were calculated as follows:
Approximate levels of sweetness enhancement=Sweetener concentration of positive control surpassed by the test sample, divided by sweetener concentration for compound-containing sample (e.g. 1.15×=5.75% sucrose/5% sucrose).
With `CCCOc1ccc(C2CC(=O)c3c(O)cc(O)cc3O2)cc1O` (stereo not drawn) [Compound 5, 5,7-dihydroxy-2-(3-hydroxy-4-propoxyphenyl)chroman-4-one], the “Fold increase in perceived sweetness” value is recorded as over 1.1X. Same read-out and setting: the result for `COc1ccc(C2CC(=O)c3c(O)cc(OCCCC(=O)O)cc3O2)cc1O` (stereo not drawn) [Compound 4, 4-((5-hydroxy-2-(3-hydroxy-4-methoxyphenyl)-4-oxochroman-7-yl)oxy)butanoic acid] reads over 1.1X; that for `COc1ccc(C2CC(=O)c3c(Cl)cc(O)cc3O2)cc1O` (stereo not drawn) [Compound 17], 1.1X; that for `COc1ccc(C2CC(=O)c3c(O)cc(OCCCS(=O)(=O)O)cc3O2)cc1O` (stereo not drawn) [Compound 14, 3-((5-hydroxy-2-(3-hydroxy-4-methoxyphenyl)-4-oxochroman-7-yl)oxy)propane-1-sulfonic acid potassium salt], over 1.1X.

Staying with this assay, now noted: test sample 5% sucrose; compound 20 ppm with positive 2AFC.
For the molecule `COc1cc(C2CC(=O)c3c(O)cccc3O2)ccc1C` (stereo not drawn) [Compound 16], the “Fold increase in perceived sweetness” value is listed as over 1.1X. Still for that read-out and setting: the result for `COc1ccc(C2CC(=O)c3c(O)cc(OCCCC(=O)O)cc3O2)cc1O` (stereo not drawn) [Compound 4, 4-((5-hydroxy-2-(3-hydroxy-4-methoxyphenyl)-4-oxochroman-7-yl)oxy)butanoic acid] reads over 1.1X.
